ChEMBL document CHEMBL1201862, “PubChem BioAssay data set” (2004)
The source made the active and inactive calls.

Legend:
Estrogen receptor beta = Estrogen receptor beta (Homo sapiens, UniProt Q92731); test: blockers of SRC-3 recruitment to ERβ – biochemical, ELISA, streptavidin-HRP readout, orthogonal assay, confirmation (AID 1060)
[1] = blockade of melanocortin 4 receptor signaling – cell-based, plate reader, cherry pick, counter-screen for LGR2 antagonist project, dose response (AID 743444); assay type: functional;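 also: transfected HEK 293 cells stimulated with alpha-MSH peptide; potency of inhibitors of the alpha-MSH evoked signal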
[2] = A549 cell cytotoxicity, dose response, cytotoxicity control, plate reader, cherry-pick, antagonist series (AID 743412); assay type: functional, cell-based
[3] = biological target: T1, High affinity choline transporter 1 (Homo sapiens, UniProt Q9GZV3); test: human choline transporter blockers, potency – cell-based, 5-point CRC, membrane potential dye, dose response (AID 504840); assay type: functional
T1 sequence (Q9GZV3 whole entry): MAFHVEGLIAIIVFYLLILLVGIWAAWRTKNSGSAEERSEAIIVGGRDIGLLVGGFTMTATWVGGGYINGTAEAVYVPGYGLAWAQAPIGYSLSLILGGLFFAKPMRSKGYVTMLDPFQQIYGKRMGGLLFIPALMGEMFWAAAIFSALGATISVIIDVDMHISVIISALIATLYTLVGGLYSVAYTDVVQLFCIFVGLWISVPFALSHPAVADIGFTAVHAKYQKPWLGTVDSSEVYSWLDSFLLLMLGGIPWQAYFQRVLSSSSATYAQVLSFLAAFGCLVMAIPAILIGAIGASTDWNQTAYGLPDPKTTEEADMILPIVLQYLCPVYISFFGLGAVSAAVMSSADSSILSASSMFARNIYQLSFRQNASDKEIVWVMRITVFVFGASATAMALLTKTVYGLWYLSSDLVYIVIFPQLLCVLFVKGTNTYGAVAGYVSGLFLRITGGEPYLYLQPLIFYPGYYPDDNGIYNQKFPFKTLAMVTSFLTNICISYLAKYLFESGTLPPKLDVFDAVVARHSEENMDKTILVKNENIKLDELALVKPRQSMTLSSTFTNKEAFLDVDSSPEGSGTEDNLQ

Escherichia coli = test: microbe, parasite or virus in culture
[4] = biological target: Voltage-gated N-type calcium channel alpha-1B subunit/Amyloid beta A4 precursor protein-binding family A member 1 (Homo sapiens, UniProt Q00975+Q02410); assay type: protein assay
[5] = biological target: T2, Rac GTPase-activating protein 1 (Homo sapiens, UniProt Q9H0H5); test: blockers of MgcRacGAP-driven Rac1 GTP hydrolysis – biochemical, ADP Hunter fluorescence, primary and confirmatory, confirmation (AID 624330); assay type: functional
T2 sequence (Q9H0H5 whole entry): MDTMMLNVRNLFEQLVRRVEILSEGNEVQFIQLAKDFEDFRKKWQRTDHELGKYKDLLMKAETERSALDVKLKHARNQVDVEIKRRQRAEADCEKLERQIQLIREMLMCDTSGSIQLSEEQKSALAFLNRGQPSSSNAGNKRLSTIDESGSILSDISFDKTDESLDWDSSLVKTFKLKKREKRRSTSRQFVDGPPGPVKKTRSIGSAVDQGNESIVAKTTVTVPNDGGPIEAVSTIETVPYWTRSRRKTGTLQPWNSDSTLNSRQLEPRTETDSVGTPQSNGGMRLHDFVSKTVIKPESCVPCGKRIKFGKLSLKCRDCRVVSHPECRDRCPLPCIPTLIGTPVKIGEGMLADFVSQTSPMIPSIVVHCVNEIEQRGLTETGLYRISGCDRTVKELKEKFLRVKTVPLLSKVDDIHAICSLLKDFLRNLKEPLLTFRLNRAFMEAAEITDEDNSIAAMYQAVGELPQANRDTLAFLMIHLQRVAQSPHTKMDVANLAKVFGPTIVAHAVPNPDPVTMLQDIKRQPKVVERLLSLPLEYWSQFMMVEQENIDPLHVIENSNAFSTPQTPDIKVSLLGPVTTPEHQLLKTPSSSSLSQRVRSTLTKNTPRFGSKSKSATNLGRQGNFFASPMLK

[6] = biological target: T3, Zinc finger protein mex-5 (Caenorhabditis elegans, UniProt Q9XUB2); test: potency of MEX-5 RNA-binding blockers – biochemical, C. elegans, fluorescence polarization, dose response (AID 1960)
T3 sequence (Q9XUB2 whole entry): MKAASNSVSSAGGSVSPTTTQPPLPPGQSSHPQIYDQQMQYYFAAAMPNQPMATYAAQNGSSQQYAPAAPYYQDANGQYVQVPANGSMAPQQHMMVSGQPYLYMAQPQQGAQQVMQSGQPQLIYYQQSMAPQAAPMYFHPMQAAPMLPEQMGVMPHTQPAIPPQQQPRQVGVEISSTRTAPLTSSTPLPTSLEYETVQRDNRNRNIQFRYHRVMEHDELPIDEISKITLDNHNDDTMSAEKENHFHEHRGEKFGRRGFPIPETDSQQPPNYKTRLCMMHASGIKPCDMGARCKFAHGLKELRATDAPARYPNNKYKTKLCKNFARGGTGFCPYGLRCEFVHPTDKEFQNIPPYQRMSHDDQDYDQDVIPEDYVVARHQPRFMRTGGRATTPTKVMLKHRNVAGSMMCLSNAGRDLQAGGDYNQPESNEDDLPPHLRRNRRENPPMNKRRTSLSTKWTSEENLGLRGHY

[7] = biological target: T4, RNA-binding protein pos-1 (Caenorhabditis elegans, UniProt G5EF15); test: disruptors of C. elegans POS-1 RNA interaction – biochemical, fluorescence polarization, dose response (AID 1964);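 also: purified POS-1 fused to maltose binding protein made in E. coli; potency of compounds blocking POS-1 binding to fluorescent RNA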
T4 sequence (G5EF15 whole entry): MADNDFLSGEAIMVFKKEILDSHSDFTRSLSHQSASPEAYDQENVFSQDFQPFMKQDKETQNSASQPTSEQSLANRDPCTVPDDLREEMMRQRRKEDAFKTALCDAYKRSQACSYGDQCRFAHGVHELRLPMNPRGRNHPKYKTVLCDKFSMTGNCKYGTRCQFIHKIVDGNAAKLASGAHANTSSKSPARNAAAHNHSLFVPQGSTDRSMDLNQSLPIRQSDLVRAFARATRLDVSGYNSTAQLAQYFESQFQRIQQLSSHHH

[8] = viability loss in THP-1 monocytes – THP-1 cells, cytotoxicity control for Vif-APOBEC3G degradation inhibitor project, dose response (AID 1117359); assay type: functional; conditions: THP-1
[9] = biological target: T5, Carboxy-terminal domain RNA polymerase II polypeptide A small phosphatase 1 (Homo sapiens, UniProt Q9GZU7); test: CTDSP1 inhibitors, concentration-response, biochemical, absorbance readout, ultra-high-throughput screen actives (AID 540297); assay type: functional
T5 sequence (Q9GZU7 whole entry): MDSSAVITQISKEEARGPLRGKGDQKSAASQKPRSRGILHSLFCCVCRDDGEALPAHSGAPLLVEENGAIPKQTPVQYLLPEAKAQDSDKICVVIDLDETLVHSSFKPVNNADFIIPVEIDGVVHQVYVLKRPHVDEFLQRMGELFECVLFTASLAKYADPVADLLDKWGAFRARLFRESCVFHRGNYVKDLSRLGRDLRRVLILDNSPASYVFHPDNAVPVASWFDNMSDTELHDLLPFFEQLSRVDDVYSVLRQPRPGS

[10] = biological target: Protein-tyrosine kinase 2-beta (Homo sapiens, UniProt Q14289);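 also: potency of inhibitors of PYK2 kinase phosphorylation of poly-GT substrate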
[11] = biological target: T6, Apoptotic protease-activating factor 1 (Homo sapiens, UniProt O14727); assay type: functional
T6 sequence (O14727 whole entry): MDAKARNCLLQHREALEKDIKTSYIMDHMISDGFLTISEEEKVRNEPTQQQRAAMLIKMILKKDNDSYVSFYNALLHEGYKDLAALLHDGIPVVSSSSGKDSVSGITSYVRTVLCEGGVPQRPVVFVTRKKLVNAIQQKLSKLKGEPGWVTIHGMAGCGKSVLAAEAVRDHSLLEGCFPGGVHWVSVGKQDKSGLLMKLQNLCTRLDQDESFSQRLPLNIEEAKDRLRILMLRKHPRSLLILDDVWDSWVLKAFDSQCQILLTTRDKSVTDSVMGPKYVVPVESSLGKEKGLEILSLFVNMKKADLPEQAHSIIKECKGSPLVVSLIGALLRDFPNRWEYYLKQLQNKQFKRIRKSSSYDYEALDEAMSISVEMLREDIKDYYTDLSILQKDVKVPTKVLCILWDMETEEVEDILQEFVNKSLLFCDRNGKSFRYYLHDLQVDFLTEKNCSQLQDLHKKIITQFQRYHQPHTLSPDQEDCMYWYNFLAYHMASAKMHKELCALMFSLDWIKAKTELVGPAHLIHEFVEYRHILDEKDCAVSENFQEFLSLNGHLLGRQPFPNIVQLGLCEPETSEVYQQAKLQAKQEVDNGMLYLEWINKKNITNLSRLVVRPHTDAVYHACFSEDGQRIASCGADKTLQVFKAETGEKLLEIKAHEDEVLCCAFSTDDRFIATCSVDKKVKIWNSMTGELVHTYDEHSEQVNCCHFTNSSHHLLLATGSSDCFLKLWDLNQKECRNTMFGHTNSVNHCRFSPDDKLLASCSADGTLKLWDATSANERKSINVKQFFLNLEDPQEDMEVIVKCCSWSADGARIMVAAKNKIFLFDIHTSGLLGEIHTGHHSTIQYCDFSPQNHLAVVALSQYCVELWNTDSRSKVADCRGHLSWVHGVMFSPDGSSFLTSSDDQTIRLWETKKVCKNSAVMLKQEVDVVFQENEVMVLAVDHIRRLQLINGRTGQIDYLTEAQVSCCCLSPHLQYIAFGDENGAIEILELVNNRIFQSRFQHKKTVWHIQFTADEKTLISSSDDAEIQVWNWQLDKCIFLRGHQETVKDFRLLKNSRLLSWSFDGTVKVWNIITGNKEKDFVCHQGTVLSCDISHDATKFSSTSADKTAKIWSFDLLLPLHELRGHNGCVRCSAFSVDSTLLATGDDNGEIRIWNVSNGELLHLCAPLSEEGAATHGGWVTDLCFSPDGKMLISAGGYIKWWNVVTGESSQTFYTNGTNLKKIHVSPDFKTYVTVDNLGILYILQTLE

Voltage-gated N-type calcium channel alpha-1B subunit/Amyloid beta A4 precursor protein-binding family A member 1, sequence (Q00975 whole entry): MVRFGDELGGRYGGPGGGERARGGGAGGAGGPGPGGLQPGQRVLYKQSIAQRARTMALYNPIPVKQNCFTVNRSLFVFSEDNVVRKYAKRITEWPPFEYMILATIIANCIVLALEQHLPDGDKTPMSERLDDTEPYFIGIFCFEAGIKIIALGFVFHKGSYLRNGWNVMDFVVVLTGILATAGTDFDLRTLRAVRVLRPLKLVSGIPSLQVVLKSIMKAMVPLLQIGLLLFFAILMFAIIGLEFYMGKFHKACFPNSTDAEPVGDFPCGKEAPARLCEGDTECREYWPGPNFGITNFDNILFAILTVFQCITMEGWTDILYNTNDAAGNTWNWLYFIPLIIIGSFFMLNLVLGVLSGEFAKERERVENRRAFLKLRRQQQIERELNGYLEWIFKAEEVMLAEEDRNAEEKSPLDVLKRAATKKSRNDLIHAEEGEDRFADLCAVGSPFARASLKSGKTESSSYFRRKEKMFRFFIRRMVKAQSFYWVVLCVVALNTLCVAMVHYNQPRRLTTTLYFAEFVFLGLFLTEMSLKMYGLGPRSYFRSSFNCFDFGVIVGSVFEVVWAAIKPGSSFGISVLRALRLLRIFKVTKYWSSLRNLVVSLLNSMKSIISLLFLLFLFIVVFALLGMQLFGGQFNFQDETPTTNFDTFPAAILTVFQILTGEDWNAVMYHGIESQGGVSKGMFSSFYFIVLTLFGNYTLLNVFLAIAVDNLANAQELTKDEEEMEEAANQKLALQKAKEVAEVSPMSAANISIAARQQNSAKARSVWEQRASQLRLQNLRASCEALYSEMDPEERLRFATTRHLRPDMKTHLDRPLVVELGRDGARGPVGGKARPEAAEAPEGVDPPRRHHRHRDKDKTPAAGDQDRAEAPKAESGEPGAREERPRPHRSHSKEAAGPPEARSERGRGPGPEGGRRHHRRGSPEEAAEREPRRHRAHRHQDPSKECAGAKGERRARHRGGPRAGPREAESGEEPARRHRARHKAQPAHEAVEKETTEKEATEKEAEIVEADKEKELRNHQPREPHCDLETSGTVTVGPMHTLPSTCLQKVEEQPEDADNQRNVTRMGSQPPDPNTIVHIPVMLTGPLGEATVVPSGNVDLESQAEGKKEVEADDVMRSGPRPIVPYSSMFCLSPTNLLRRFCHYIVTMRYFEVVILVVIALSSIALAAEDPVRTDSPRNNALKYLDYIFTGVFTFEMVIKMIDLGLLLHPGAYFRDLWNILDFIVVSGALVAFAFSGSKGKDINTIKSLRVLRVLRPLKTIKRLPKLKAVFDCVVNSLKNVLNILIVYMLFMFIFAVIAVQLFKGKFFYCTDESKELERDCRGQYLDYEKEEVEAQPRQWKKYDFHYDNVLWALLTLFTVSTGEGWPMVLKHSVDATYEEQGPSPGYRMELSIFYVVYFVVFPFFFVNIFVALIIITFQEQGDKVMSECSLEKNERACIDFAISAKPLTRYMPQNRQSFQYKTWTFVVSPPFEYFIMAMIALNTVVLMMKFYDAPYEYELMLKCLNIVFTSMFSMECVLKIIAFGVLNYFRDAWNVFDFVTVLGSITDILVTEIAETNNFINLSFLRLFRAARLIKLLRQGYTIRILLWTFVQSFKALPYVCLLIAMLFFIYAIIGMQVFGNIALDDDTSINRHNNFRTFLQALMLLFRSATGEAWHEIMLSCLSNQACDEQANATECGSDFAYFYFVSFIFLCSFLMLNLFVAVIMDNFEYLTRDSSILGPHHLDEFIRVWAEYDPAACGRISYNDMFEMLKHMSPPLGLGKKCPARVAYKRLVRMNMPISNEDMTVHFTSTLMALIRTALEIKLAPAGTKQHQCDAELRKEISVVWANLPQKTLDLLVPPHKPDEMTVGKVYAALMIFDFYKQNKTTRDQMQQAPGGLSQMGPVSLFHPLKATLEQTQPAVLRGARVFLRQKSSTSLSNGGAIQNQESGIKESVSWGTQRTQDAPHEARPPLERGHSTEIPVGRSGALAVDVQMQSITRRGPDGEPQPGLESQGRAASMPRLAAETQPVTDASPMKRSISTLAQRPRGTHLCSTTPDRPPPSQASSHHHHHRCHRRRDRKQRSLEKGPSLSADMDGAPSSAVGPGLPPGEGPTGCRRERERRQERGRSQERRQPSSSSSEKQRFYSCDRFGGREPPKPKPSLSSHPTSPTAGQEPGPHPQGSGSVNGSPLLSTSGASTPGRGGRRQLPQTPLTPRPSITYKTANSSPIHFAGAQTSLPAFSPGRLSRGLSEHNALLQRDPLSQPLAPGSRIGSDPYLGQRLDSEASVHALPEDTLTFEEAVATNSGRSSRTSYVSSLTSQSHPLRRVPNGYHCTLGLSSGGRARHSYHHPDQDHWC
Voltage-gated N-type calcium channel alpha-1B subunit/Amyloid beta A4 precursor protein-binding family A member 1, sequence (Q02410 whole entry): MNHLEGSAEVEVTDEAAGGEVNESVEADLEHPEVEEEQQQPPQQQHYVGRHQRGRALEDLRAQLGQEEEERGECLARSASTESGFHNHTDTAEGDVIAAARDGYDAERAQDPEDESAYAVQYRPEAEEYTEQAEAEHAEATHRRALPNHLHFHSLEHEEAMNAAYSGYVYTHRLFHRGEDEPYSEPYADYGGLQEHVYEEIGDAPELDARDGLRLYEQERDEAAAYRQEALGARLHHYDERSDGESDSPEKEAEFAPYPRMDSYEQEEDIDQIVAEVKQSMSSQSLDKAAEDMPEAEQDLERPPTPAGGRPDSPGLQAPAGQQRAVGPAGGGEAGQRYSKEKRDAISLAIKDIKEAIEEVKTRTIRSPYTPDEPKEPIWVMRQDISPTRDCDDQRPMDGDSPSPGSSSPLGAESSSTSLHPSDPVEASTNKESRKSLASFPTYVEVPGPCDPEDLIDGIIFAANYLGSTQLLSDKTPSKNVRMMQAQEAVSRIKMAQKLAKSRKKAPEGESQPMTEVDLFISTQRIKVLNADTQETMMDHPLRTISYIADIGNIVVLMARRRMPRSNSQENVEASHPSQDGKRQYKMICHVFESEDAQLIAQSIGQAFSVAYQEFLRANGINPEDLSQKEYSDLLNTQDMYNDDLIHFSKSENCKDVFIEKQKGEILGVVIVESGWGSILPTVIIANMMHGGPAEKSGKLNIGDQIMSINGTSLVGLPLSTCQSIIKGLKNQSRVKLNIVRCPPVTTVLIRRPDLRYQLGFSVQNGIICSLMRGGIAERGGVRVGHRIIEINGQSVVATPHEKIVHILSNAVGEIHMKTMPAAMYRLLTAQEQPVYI
Estrogen receptor beta, sequence (Q92731 whole entry): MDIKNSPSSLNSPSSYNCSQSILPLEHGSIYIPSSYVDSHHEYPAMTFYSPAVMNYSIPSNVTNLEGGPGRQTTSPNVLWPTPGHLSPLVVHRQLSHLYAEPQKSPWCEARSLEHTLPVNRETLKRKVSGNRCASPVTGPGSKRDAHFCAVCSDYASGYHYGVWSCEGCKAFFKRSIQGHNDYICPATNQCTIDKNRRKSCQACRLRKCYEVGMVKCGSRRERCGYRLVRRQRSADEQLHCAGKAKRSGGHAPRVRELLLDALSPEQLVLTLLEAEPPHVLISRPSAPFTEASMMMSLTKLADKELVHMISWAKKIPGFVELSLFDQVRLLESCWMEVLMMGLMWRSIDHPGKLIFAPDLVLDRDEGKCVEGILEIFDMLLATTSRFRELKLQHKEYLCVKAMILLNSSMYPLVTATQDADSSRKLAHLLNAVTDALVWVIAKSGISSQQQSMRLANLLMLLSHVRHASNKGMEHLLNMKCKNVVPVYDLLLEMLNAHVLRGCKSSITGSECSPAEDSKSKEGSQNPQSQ
Protein-tyrosine kinase 2-beta, sequence (Q14289 whole entry): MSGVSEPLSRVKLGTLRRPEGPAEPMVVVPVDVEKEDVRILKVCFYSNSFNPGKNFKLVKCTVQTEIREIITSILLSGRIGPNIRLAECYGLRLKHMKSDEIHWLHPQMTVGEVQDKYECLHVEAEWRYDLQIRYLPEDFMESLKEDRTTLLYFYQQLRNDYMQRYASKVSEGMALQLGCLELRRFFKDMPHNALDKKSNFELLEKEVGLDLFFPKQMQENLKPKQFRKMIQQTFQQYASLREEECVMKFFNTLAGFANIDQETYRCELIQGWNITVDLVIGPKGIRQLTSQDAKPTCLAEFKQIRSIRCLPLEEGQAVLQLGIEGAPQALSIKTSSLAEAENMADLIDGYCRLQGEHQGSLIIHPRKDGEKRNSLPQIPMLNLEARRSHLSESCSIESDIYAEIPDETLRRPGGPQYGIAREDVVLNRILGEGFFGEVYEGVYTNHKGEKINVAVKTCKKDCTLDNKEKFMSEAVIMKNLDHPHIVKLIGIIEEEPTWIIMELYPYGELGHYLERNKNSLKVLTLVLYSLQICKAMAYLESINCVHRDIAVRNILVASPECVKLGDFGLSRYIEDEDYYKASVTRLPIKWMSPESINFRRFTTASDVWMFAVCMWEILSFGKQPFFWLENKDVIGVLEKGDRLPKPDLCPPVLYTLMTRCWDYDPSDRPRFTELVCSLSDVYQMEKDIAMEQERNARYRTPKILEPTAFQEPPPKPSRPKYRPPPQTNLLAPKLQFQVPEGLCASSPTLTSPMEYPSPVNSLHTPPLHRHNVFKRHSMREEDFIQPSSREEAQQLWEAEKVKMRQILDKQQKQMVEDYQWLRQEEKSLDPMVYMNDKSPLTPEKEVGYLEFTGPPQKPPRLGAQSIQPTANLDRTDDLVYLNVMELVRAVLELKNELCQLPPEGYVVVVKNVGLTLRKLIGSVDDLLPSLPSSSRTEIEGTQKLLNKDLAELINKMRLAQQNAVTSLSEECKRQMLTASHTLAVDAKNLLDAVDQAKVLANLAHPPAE

Structure (SMILES): N#Cc1c(NC(=O)CN2CCCCC2)sc2c1CCC2
- IC50 (Estrogen receptor beta): 0.0561 µM (not active)

Structure (SMILES): COc1ccc(S(=O)(=O)Nc2ccc3c(c2)C(=O)N([C@@H](C)CO)C[C@@H](C)[C@H](CN(C)C(=O)Nc2cccc4ccccc24)OCCCC[C@H](C)O3)cc1
- AC50 [1]: 2.05 µM (active)
- AC50 [2]: > 52 µM (inactive)

Structure (SMILES): O=C(N/N=C/c1ccsc1)c1c[nH]c2ccccc12
- IC50 [3]: 3.8 µM (active)

Structure (SMILES): Cc1ccc(-c2nnc(OCC3CCCO3)c3ccccc23)cc1 (centres undefined)
- IC50 [3]: 14.5 µM (active)

Structure (SMILES): Cc1ccc(NC(=O)COC(=O)CCC(=O)c2cccs2)c(C)c1
- AC50 (Escherichia coli): > 150 µM (inactive)

Structure (SMILES): CCOc1ccc(NC(=O)Cn2cncc2-c2ccc([N+](=O)[O-])cc2)cc1
- IC50 [4]: 5.93 µM (active)

Structure (SMILES): Cn1cccc1/C=C1\C(=O)NC(=O)N(Cc2ccco2)C1=O
- IC50 [5]: 116 µM (active)
- EC50 [6]: 57.7 µM (active)
- EC50 [7]: > 300 µM (not active)
- CC50 [8]: > 40 µM (active)
- IC50 [9]: 4.88 µM (active)

Structure (SMILES): CC1CCN(S(=O)(=O)c2ccc3c(c2)N(CC(=O)NCCCN2CCCCC2C)C(=O)CS3)CC1 (centres undefined)
- IC50 [3]: 13 µM (active)

Structure (SMILES): O=C(OCC(=O)N1CCN(C(=O)c2ccco2)CC1)c1cc(-c2ccc(Cl)c(Cl)c2Cl)nc2ccccc12
- IC50 [10]: 5.94 µM (active)

Structure (SMILES): Clc1ccc(CSCCc2ccncc2)cc1
- CC50 [8]: > 40 µM (active)

Structure (SMILES): COc1ccc(CCN=C(N)NS(=O)(=O)c2cccs2)cc1
- AC50 (Escherichia coli): 112 µM (active)

Structure (SMILES): CCCN(CC(=O)Nc1ccccc1OC)C(=O)CSc1ccc(Br)cc1C
- IC50 [11]: 48.4 µM (active)
- CC50 [8]: > 40 µM (active)

Structure (SMILES): O=C(C1CC(=O)N(C2CCCC2)C1)N1CCN(c2ccc(F)cc2)CC1 (centres undefined)
- AC50 (Escherichia coli): 31.8 µM (active)
